We go through two compounds from PMC12589586, “Targeting TAZ-TEAD in minimal residual disease enhances the duration of targeted therapy in melanoma models” (Nature Communications, 2025).

One test has as its target T1, TEAD4 (Mus musculus, UniProt Q62296).
T1 construct: FLAG-tagged mTEAD4, depalmitoylated
Kind of test: protein thermal shift assay (delta Tm); no binding to palmitoylated TEAD4.

For test [1], the target named is T2, TEAD1 (Homo sapiens, UniProt P28347). As to the kind of experiment: protein thermal shift assay (delta Tm). It counts as binding. More on the design: FLAG-tagged hTEAD1, depalmitoylated.
T2 sequence (P28347 whole entry): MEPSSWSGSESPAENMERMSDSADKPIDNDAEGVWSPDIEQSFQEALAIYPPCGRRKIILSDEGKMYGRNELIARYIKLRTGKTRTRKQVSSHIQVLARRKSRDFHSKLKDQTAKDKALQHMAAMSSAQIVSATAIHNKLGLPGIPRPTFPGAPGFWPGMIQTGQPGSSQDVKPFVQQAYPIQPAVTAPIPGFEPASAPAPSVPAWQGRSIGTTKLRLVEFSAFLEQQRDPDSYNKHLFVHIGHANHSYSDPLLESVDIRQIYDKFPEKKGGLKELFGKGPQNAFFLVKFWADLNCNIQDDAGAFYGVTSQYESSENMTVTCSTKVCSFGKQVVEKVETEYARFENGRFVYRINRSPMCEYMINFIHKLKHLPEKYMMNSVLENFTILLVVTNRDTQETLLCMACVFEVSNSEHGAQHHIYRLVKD
Test [2] deals with T2, TEAD1. Kind of test: co-crystal structure ([…] Å); also protein thermal shift. In kind it is binding. The arrangement: FLAG-tagged hTEAD1, depalmitoylated (thermal shift).

T1 sequence (Q62296 whole entry): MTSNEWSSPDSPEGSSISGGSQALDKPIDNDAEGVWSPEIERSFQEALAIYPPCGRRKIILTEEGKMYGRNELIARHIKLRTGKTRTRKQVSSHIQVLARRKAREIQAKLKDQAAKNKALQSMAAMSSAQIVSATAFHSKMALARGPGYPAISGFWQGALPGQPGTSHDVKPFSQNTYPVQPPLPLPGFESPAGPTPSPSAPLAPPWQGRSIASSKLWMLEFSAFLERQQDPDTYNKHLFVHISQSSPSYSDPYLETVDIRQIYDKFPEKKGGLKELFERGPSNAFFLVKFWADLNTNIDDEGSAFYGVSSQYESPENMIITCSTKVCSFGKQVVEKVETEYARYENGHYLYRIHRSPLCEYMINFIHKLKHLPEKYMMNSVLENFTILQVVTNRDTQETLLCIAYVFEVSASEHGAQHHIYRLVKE

As to `C=CC(=O)N1CCc2ccc(Oc3ccc(C(F)(F)F)cc3)cc2C1` [OPN-9643, 1-(7-(4-(trifluoromethyl)phenoxy)-3,4-dihydroisoquinolin-2(1H)-yl)prop-2-en-1-one], the “protein thermal shift assay (delta Tm); no binding to palmitoylated TEAD4” value on TEAD4 is “Incubation of these compounds with depalmitoylated TEAD4 resulted in significant Tm shifts, indicating binding and stabilization of target proteins”. Moreover, on TEAD1 [1], the “protein thermal shift assay (delta Tm)” value was “protein thermal shift analysis and confirmed the binding of both compounds to depalmitoylated TEAD1 and TEAD4 proteins”.
Turning to `C=CC(=O)N1CCc2ccc(Oc3ccc(C(F)(F)F)c(F)c3)cc2C1` [OPN-9652, 1-(7-(3-fluoro-4-(trifluoromethyl)phenoxy)-3,4-dihydroisoquinolin-2(1H)-yl)prop-2-en-1-one], the “protein thermal shift assay (delta Tm); no binding to palmitoylated TEAD4” value on TEAD4 is “Incubation of these compounds with depalmitoylated TEAD4 resulted in significant Tm shifts, indicating binding and stabilization of target proteins”. For the same compound, the “co-crystal structure (2.03 Å); also protein thermal shift” value on TEAD1 [2] was “OPN-9652 occupies the central palmitate-binding pocket and covalently modifies Cys359”.
